From US9649381B2, “Transporter protein-coupled nanodevices for targeted drug delivery” (Wayne State University, priority 2013, dated 2017)

How the values were obtained:
C2Hx rats = test: EMG recording of diaphragm recovery in C2Hx rats after injection into the paralyzed hemidiaphragm; format: in vivo, rat
Description: In one case, rats with hemisection at C2Hx, hereafter “C2Hx rats,” have undergone surgical treatment to disrupt the bulbospinal pathway from the rVRG to the PN, the primary source for descending respiratory drive. Paralysis of the ipsilateral diaphragm muscle in C2Hx confirmed by electomygram (EMG). In such rats, the latent crossed phrenic pathway remains intact, as axons decussate caudal to injury.
In one example, a nanodevice with a targeting portion of WGA-HRP and a molecule to be delivered of pro-THP, the pro-THP being bound to the connecting portion by a slow drug release linker, was administered by injection into the paralyzed hemidiaphragms of a cohort of 11 C2-hemisected rats. About 50 μl of the nanodevice, which contained about 0.275 μg of pro-THP, was injected. Five 10 μl injections were conducted at even spatial intervals to spread the conjugate throughout the hemidiaphragm. This constitutes a single round of injections and thus considered to be a one-time, single-injection type of treatment.
FIG. 3 illustrates a trial of C2Hx rats that have been treated with a WGA-HRP/gold/pro-theophylline nanodevice. In each plot, the Y-axis 301a/b/c/d represents a voltage signal and the X-axis 302/a/b/c/d represents time, increasing from left to right. Two different types of plots are shown in FIG. 3; FIG. 3A-C are EMG recordings and FIG. 3D is a phrenic nerve recording. […]

[1] = system: rat spinal cord injury model animals; test: Chronic systemic drug administration, persistence of hemidiaphragm recovery in spinal cord injury model animals; format: in vivo; details: multiple systemic administrations over 3 days
Description: Chronic administrations of theophylline, however, induce plasticity in the respiratory pathways which results in recovery that persists for days. Specifically, three days of orally administered theophylline three times per day (for a total of nine doses) was sufficient to bring about and maintain respiratory recovery that persisted for about 3 days, about 7 days, about 12 days, and about 30 days after the last drug administration in separate groups of animals.
Theophylline is both an adenosine receptor antagonist and a phosphodiesterase (PDE) inhibitor. Chronic administration of rolipram (a PDE-4 specific inhibitor), pentoxifylline (a general PDE inhibitor), or DPCPX (an adenosine A1 receptor antagonist) also induce persistent functional recovery of a paralyzed hemidiaphragm in rat spinal cord injury model animals for as long as 10 days, the longest interval studied, after the animal is last exposed to the drugs. Although rolipram and pentoxifylline have been approved for clinical use, these “first generation” PDE inhibitors can induce the same side effects as theophylline, including nausea and vomiting.

[2] = system: patients with cervical spinal cord injury; details: cited from earlier work

SMILES	amount of theophylline required to realize recovery (C2Hx rats; C2Hx rats, systemic treatment) [mg/kg]	recovery after multiple systemic administrations [1]	left diaphragm EMG activity ([2]; patient with asymmetrical cervical spinal cord injury, acute and chronic theophylline)	increase in diaphragm EMG activity, maximum ([2]; tetraplegic patient, ventilator dependent, intravenous, increasing doses over one day, therapeutic levels) [%]	dosage required for recovery in a rat (C2Hx rats; single administration, studies like FIG. 3A-D) [microgram]
Cn1c(=O)c2[nH]cnc2n(C)c1=O [theophylline]	15	long-lasting recovery	markedly increased	50	–
CCCn1c(=O)c2[nH]c(C3CCCC3)nc2n(CCC)c1=O [DPCPX, 1,3-dipropyl-8-cyclopentylxanthine]	–	–	–	–	0.093
